Experimental data taken from ChEMBL document CHEMBL5214893, “Saponins from Saffron Corms Inhibit the Gene Expression and Secretion of Pro-Inflammatory Cytokines” (J Nat Prod, 2021).
Active and inactive are the calls of the source.

Assays:
Assay type in all cases: functional, cell-based
Settings in all cases: time 48.0 hrs
HaCaT [1] = assay: […] of TNF-alpha/IFN-gamma induced MCP-1 expression in human HaCaT cells at 20 uM preincubated for 24 hrs followed by stimulation and measured after […] by ELISA analysis
HaCaT [2] = assay: Effect on TNF-alpha/IFN-gamma induced- MCP-1 secretion in human HaCaT cells at 1 uM preincubated for 24 hrs followed by stimulation and measured after […] by ELISA analysis
HaCaT [3] = assay: Effect on TNF-alpha/IFN-gamma-induced RANTES secretion in human HaCaT cells at 1 uM preincubated for 24 hrs followed by stimulation and measured after […] by ELISA analysis
HaCaT [4] = assay: Downregulation of TNF-alpha/IFN-gamma induced RANTES expression in human HaCaT cells at 20 uM preincubated for 24 hrs followed by stimulation and measured after […] by ELISA analysis
HaCaT [5] = assay: Effect on TNF-alpha/IFN-gamma-induced RANTES secretion in human HaCaT cells at 20 uM preincubated for 24 hrs followed by stimulation and measured after […] by ELISA analysis

Measured: Activity

C[C@@H]1O[C@@H](OCCCCCCC(=O)CCCCCCC(CC(=O)O[C@@H]2[C@H](O)[C@@H](O[C@@H]3O[C@@H](C)[C@H](O[C@@H]4OC[C@@H](O)[C@H](O)[C@H]4O)[C@@H](O)[C@H]3O[C@@H]3OC[C@H](O)[C@H](O)[C@H]3OC3O[C@H](CO)[C@H](O)[C@H](O)[C@H]3O)[C@H](OC(=O)[C@]34CCC(C)(C)C[C@H]3C3=CC[C@@H]5[C@@]6(C)CC[C@H](O[C@@H]7O[C@H](C(=O)O)[C@@H](O)[C@H](O)[C@H]7O)C(C)(C)[C@@H]6CC[C@@]5(C)[C@]3(C)C[C@H]4O)O[C@@H]2C)O[C@H]2O[C@H](C)[C@@H](O)[C@H](O)[C@@H]2O)[C@H](O)[C@H](O)[C@H]1O (stereo partly specified)
not listed: HaCaT [5]
active: all other assays above

C[C@@H]1O[C@@H](OCCCCCCC(=O)CCCCCCC(CC(=O)O[C@@H]2[C@H](O)[C@@H](O[C@@H]3O[C@@H](C)[C@H](O[C@@H]4OC[C@@H](O)[C@H](O)[C@H]4O)[C@@H](O)[C@H]3O[C@@H]3OC[C@H](O)[C@H](O)[C@H]3OC3O[C@H](CO)[C@H](O)[C@H](O)[C@H]3O)[C@H](OC(=O)[C@]34CCC(C)(C)C[C@H]3C3=CC[C@@H]5[C@@]6(C)CC[C@H](O[C@@H]7O[C@H](C(=O)O)[C@H](O)[C@H](O)[C@H]7O)C(C)(C)[C@@H]6CC[C@@]5(C)[C@]3(C)C[C@H]4O)O[C@@H]2C)O[C@H]2O[C@H](C)[C@@H](O)[C@H](O)[C@@H]2O)[C@H](O)[C@H](O)[C@H]1O (stereo partly specified)
not listed: HaCaT [5]
active: all other assays above

C[C@]12CCC(=O)C=C1CC[C@@H]1[C@@H]2[C@@H](O)C[C@@]2(C)[C@H]1CC[C@]2(O)C(=O)CO
active: HaCaT [1] | HaCaT [4] | HaCaT [5]
